Experimental data reported in patent publication US7258999B2, “PTH responsive gene” (Wyeth, priority 2002, dated 2007).

How the values were obtained:
[1] = tested on: PAIGB expression; assay: Real time PCR of PAIGB expression in rat tibia; format: in vivo
Procedure: RNA isolation was performed on bone as well as from different cell lines used during experimentation. RNA was isolated from rat tibiae as follows. Following euthanasia by CO2 asphyxiation tibiae were dissected free of soft tissue as rapidly as possible with autoclaved instruments, wiped with autoclaved gauze soaked in ethanol and the epiphysis broken off at the proximal growth plate by hand and discarded. The tibia was then cut transversely with bone cutters just distal to the proximal growth plate and just proximal to the distal tibia-fibula junction to expose the trabecular bone and the bone marrow. The trabecular bone and marrow cavity was flushed with ice cold sterile PBS using a Lancer liquid transfer pipette (Oxford Labware, St. Louis, Mo.) to remove the marrow and the cleaned bone placed in liquid nitrogen.
Applicants performed multiplex real time PCR (TaqMan) analysis on previously DNAsed samples using gene specific probe and primers and 18S ribosomal RNA probe and primer sets purchased from Applied Biosystem. (Foster City, Calif.) The samples were DNAsed according to the protocol provided by Ambion (DNA-free kit). TaqMan probe and primers for PAIGB was identify using Primer Express computer program. The sequence for rat PAIGB TaqMan probe was 6FAM-5′[…] (SEQ ID NO: 16) forward and reverse primers were 5′[…] 3′ (SEQ ID NO:17) and 5′ […] 3′ (SEQ ID NO:18) respectively. The final concentrations for probes were 500 nM and 40 nM for PAIGB and 18S ribosomal RNA or GAPDH respectively. The concentrations of the primers were 500 nM for PAIGB forward and reversed primers while 18S primers were 10 and 20 nM for forward and reversed primer respectively or 40 nM for GAPDH primers. Standards for rat samples were made from rat tibia or brain RNA in the range of 250 ng to 0.1 ng, while standards for mouse specific TaqMan were made from mouse brain RNA and human standards from human brain RNA (Clonetech, Palo Alto, Calif.) spanning the same range of concentration. Primers and probes for mouse PAIGB were: forward 5′ […] 3′ (SEQ ID NO:19), reverse, 5′ […] 3′ (SEQ ID NO:20) anti-sense and probe 5′ 6FAM-[…] (SEQ ID NO:21). Primers and probes for human PAIGB were: forward 5′ […] 3′ (SEQ ID NO:22), reverse 5′ […] 3′(SEQ ID NO:23), and PROBE 5′ 6FAM-[…] 3′(SEQ ID NO: 24). The Taq-man analysis was done using ABI 7700 Sequence Detector under following conditions: 30 min at 48° C., 10 min at 95° C. and 40 cycles of 15 sec at 95° C. and 60 sec at 60° C. Analysis of real-time PCR analysis was performed using (Sequence Detector, Macintosh) program.
The initial experiments measured the expression of PAIGB in the rat tibia after 8 days of treatment. In order to examine the time course of PTH action on PAIGB expression, experiments were performed on rats treated with intermittent PTH injections (40 μg/kg body weight) and tibias were collected for RNA isolation as well as evaluation in BMD changes. Time points of sample collection were 6 hours, 2 days, 4 days and 8 days after intermittent PTH treatment. Real time PCR analysis was performed on isolated RNA samples using above described primers.
The observed increase in PAIGB expression in bone treated with PTH is dose-dependent (FIG. 10B). OVX rats with established osteopenia were treated with increasing concentration of human PTH (1-34): 5, 10, 20, 40 and 80 μg/kg of body weight for 8 days with one daily injection. Six hours after last injection animals were scarified and bone samples were harvested for RNA isolation as described in Experimental Procedure section.

[2] = tested on: PAIGB mRNA; assay: In situ hybridization of PAIGB mRNA in mouse calvariae; format: in vivo; details: Swiss Webster mice, 100 μg/kg/day sc, 30 days
Procedure: In situ analysis of PAIGB mRNA expression can be assessed in various animal species including human bone biopsy samples or from mouse, rat, dog bone samples etc., that have been treated with bone forming agents. Swiss Webster mice that have been treated with 100 μg/kg/day PTH 1-34 subcutaneously or 30 days. Mouse calvariae were gently dissected and fixed in 4% paraformaldehyde. Following fixation, the bones were decalcified in TBD-2 decalcifying agent (Shandon Lipshaw, Pittsburgh, Pa.) for 7-8 hrs then dehydrated in graded alcohol. The calvariae was subsequently bisected perpendicular to the sagittal suture through the central portion of the parietal bones parallel to the lambdoidal and coronal sutures and embedded in paraffin (femur and tibia samples are embedded longitudinally in paraffin). Four to six 5 μm-thick representative, non-consecutive step sections were cut for further analysis. Selected sections were stained with hematoxylin and eosin (Shandon Lipshaw, Pittsburgh, Pa.) and adjacent section were used for in situ hybridization. […] The expression of mRNA are evaluated using a Nikon microscope with either bright or dark field.

## human PTH (1-34)
[1]; 40 μg/kg, one daily injection, 8 days, OVX rats
  increase of PAIGB expression in bone: 10 fold
[1]; 80 μg/kg, one daily injection, 8 days, OVX rats
  increase of PAIGB expression in bone: 20 fold
[1]; 5, 10 and 20 μg/kg, one daily injection, 8 days, OVX rats
  effect on PAIGB expression in bone: did not have any effect
[1]; 4 days of intermittent injection
  PAIGB expression over vehicle treated rats: 20 fold
[1]; intermittent 40 μg/kg, days 4 and 8, compared with day 2
  effect on PAIGB expression in tibia: at the same magnitude
[1]; intermittent 40 μg/kg, two days
  increase of PAIGB expression in tibia: ~20 fold
[2]
  PAIGB mRNA expression in calvariae (in situ hybridization): induced in osteoblastic cells adjacent to the bone surface in the periosteum
